87 compounds from a melting point compilation (Tetko et al.; mined from patent text by program, amines drawn as free bases though some values may be those of a salt) can be followed below.

Each structure is given as a SMILES string. A value given as a limit tells only on which side of the number the result lay.

A word on the melting point: it is the temperature of the solid-liquid transition. Take `CCNC(=O)CCCC1CCN(Cc2cnc3cc(NC(=O)c4ccc(-c5ccc(F)cc5)cc4)c(C)cc3c2)CC1`: the melting point was 240 °C.

Consider `CCN1CCN(CC(=O)OCCOC)C(=O)c2ccc(Nc3ncc(Cl)c(Nc4ccccc4C(=O)NC)n3)cc21`, for which the melting point lay in the range of 198 to 202 °C. The compound `CCCc1c(OCCOc2ccc(N)cc2)ccc(C(C)=O)c1O` returned a melting point of 73 to 74 °C. Compound `CN1CCN(c2nc3sc4c(NCc5ccccn5)ncnc4c3c3c2CCC(C)(C)C3)CC1` came in with a melting point of 200 to 202 °C. `Cc1cc(NS(=O)(=O)c2ccccc2)cc(C)c1S(=O)(=O)C(Cl)(Cl)[N+](=O)[O-]` registered a melting point of 112 to 114 °C. With `Oc1ccc(C(=C2CCCCCC2)c2ccc(Br)cc2)cc1F` the figure was 102 to 104 °C; with `COc1ccc(C=C2SC(=S)N(CC(=O)O)C2=O)cc1-c1cc2c(cc1C)C(C)(C)CCC2(C)C`, 242 to 244 °C.

Consider `CCCCN(CCCC)c1nnc(N)s1`, for which the melting point lay in the range of 116 to 117 °C. In turn, `COC(=O)c1c(C(=O)OC)c(-c2cc(OC)c(OC)c(OC)c2)c2c(OC)c(OC)c(OC)cc2c1O` displayed a melting point of 165 to 167 °C. With `Cc1ccccc1Oc1nc(Cl)cc(Cl)n1` the figure was 78 to 79 °C; with `CCc1cccc(CC)c1NS(=O)(=O)c1ccc(C)cc1`, 130 to 131 °C; with `CCCCC(CC)C(=O)Nc1ccc2ccn(Cc3ccc(C(=O)OC(=O)N(c4ccccc4)c4ccccc4)cc3OC)c2c1` (configuration not stated), 159 to 162 °C. Turning to `O=C1C(Br)CCN1c1cc(C(F)(F)F)ccn1` (configuration not stated), the melting point was 43 to 47 °C.

Regarding `O=C(CN1CCC(Cc2ccccc2)CC1)Nc1ccc2[nH]c(=O)[nH]c2c1`, the melting point was 270 °C. With `O=C(Nc1ccc(Cl)c(Cl)c1)Oc1cccc(N=C=S)c1` the figure was 118 to 123 °C; with `CCOC(=O)c1cc(Cl)cnc1NC(=O)Cc1ccccc1`, 114 °C. With `C=C(C)n1c(=O)n(CC2CN(Cc3ccccc3)CCO2)c2ccccc21` (configuration not stated) the figure was 117 °C; with `O=c1cc(O)c2cccnc2n1-c1ccccc1`, 311 to 313 °C. The compound `CN1CCN(c2cccc(Nc3cc(NC(=O)Nc4c(Cl)cc(Cl)cc4Cl)ncn3)c2)CC1` showed a melting point of 138 to 142 °C. Consider `Cc1cc(F)cc(Oc2ccc([C@@H]3CCCN4CCS(=O)(=O)N=C34)cc2)c1`, for which the melting point was 158 to 159 °C. With `COc1c(C)cnc(CSc2nc3cc(C(F)(F)F)ccc3[nH]2)c1C` the figure was 163 °C. Regarding `CCC1(c2cccc([N+](=O)[O-])c2)C(=O)NC(=O)NC1=O`, the melting point was in the range of 283 to 284 °C. In turn, `COc1cc(O)c([N+](=O)[O-])cc1C(F)(F)F` yielded a melting point of 77 to 78 °C. For `CN(C)C1(c2ccccc2)CCC(=CC(=O)N2CCC(c3c[nH]c4ccc(Cl)cc34)CC2)CC1` (configuration not stated) the value was 115 to 119 °C; for `O=C1c2ccccc2C(=O)N1CC(=O)N1c2ccccc2N(Cc2ccccc2)C(=O)CC1C=Cc1ccccc1` (configuration not stated), 183 to 184 °C; for `CC(C)(COC(=O)COc1ccc(C(=O)CN2Cc3cc(C(N)=S)ccc3C2=O)cc1)NS(=O)(=O)c1cccnc1`, 197 to 198 °C. Compound `CCOc1ccc(-c2nc(CCC(O)c3ccccc3OC)cs2)cc1OCC` (configuration not stated) showed a melting point of 78.2 to 79 °C. Regarding `CCOC(=O)c1cc(-c2csc(-c3ccnc(NCC4CC4)c3)n2)c(=O)[nH]c1C`, the melting point is more than 260 °C. With `COC(=O)c1cc(Cl)cnc1NCc1ccccc1` the figure was 77 to 79 °C; with `C=CCOc1cc(C)c2ccc(=O)oc2c1`, 83 °C; with `CS(=O)c1c(C(F)(F)F)nn(-c2c(Cl)cc(C(F)(F)F)cc2Cl)c1N` (configuration not stated), 142 to 145 °C. For `CN(c1ccc(Br)cc1)S(=O)(=O)c1cccc(C(=O)Nc2ccc(F)cc2F)c1`, the melting point was in the range of 119 to 120 °C. For `CCCCCCCCCCCCCCCCCCNc1nc(NCC(O)C2CC(C)(C)NC(C)(C)C2)nc(NCC(O)C2CC(C)(C)NC(C)(C)C2)n1` (configuration not stated) the value was 104 to 107 °C; for `O=C1c2ccc(Cl)cc2OCc2cccnc21`, 100 to 102 °C. For `COC[C@@H](O)CN1CCC(c2ccc(-c3nc4c(N[C@H]5[C@@H](C(N)=O)[C@@H]6C=C[C@H]5C6)c(Cl)cnc4[nH]3)c(OC)c2)CC1` the value was 189 to 191 °C. In turn, `Cn1nc(-c2ccccc2)cc1C(=O)Nc1ccc(OCC(C)(C)C)c(C#N)c1` displayed a melting point of 223 to 224 °C.

Compound `CCN(CC)C(=O)Oc1cc(-c2cccc(C(F)(F)F)c2)nc2ccccc12` returned a melting point of 96 °C. On to `CCOC(=O)N1CCC2(CC1)N=C(N)c1c(F)cccc1O2`, for which the melting point is 114 to 116 °C. The compound `N#Cc1ccc(N2C(=O)N(CCCC(=O)O)C3(CCOCC3)C2=O)cc1C(F)(F)F` gave a melting point of 151 to 152 °C.

For the compound `CCC12CCC(=O)C=C1c1c(cc(O)c(Cl)c1Cl)C2` (configuration not stated), the melting point lay in the range of 260 to 265 °C. With `CNS(=O)(=O)c1ccccc1Nc1nc(Nc2ccc3c(c2)CCCC(=O)N3CC(=O)O)ncc1Cl` the figure was 192 to 195 °C; with `CCn1c(=O)[nH]c2c3ccccc3ccc21`, 240 to 242 °C; with `COC(=O)C1Oc2ccccc2Cc2ccccc2O1`, 107 to 110 °C. As to `CCN1c2c(occ(C=O)c2=O)-c2ccccc2S1(=O)=O`, the melting point fell in the range of 160 to 162 °C. With `O=C1NCCc2[nH]c3c(F)ccc(F)c3c21` the figure was 221 to 223 °C. With `CC1CN(c2ccc(N3CC(CNc4nccs4)OC3=O)cc2F)CCC1=CC#N` (configuration not stated) the figure was 75 to 77 °C; with `COc1ccc(Oc2ncnc(-c3ccc(C(F)(F)F)cc3F)c2N)cc1`, 129 to 130 °C. For `COc1ccc([C@@H]2CCCC[C@@H]2N)cc1OC` the value was 80 to 81.5 °C; for `N#Cc1ccc(Nc2nc(Oc3c(Br)cc(Br)cc3Br)ccc2[N+](=O)[O-])cc1`, 188 to 191 °C. `COc1ccc(-c2ccc3nccn3c2)cc1-c1ccc2nonc2c1` displayed a melting point of 190 to 196 °C. Compound `CC(=O)CC(=O)Nc1ccc(-c2ncn(-c3ccc(OC(F)(F)F)cc3)n2)cc1` came in with a melting point of 159 to 164 °C.

`O=C1c2ccc(SCCO)cc2C(=O)c2cc3ccccc3cc21` came in with a melting point of 195 to 196 °C. In turn, `CCC(C)Nc1c([N+](=O)[O-])cc(C)c(Cl)c1[N+](=O)[O-]` (configuration not stated) registered a melting point of 40 to 46 °C. With `CN1CCN(c2cccc3c2C[C@H](NC(=O)c2ccc(C(=O)N4CCOCC4)cc2)CC3)CC1`, the melting point fell in the range of 124 to 127 °C.

As to `O=C1NN=C(c2ccc(NC(=O)C3(Cl)CC3)cc2)C2CC12` (configuration not stated), the melting point was in the range of 221 to 222 °C. Turning to `CCCCOc1c(CNC(=O)OC(C)(C)C)n(CC(C)C)c(=O)c2ccc(CO)cc12`, the melting point was 153 to 154 °C. Compound `Cc1[nH]c2ccc(NS(C)(=O)=O)cc2c1C1=CCN(C)CC1` displayed a melting point of 176 to 184 °C. As for `Nc1c(NCCCOc2cccc(C3OCCO3)c2)c(=O)c1=O`, the melting point lay in the range of 209 to 210 °C. For the compound `Fc1ccc(Oc2cnc3c(-c4ccccc4Cl)n[nH]c3n2)c(F)c1`, the melting point lay within 240 to 242 °C. Consider `O=c1oc(-c2cccc(S(=O)C(F)(F)F)c2)nc2ccccc12` (configuration not stated), for which the melting point lay within 106 to 108 °C. For `CS(=O)(=O)c1ccc(-c2cnn(-c3csc4ccccc34)c(=O)c2-c2ccc(F)cc2)cc1`, the melting point lay in the range of 265 to 267 °C.

`COc1ccc(-c2ccc3c(c2)CCc2nn(-c4ccccn4)c(O)c2-3)cc1`: the melting point is 159 to 160 °C. The compound `COC(=O)c1c(Cl)c(Cl)c(Cl)c(Cl)c1C#N` showed a melting point of 82 to 83 °C. With `CC1(O)CC(=O)OC(CCc2ccc(OCc3ccccc3)cc2)C1` (configuration not stated), the melting point lay in the range of 82 to 85 °C.

`CC(C(=O)O)n1cc(-c2ccccc2)c(=O)c(-c2cccc(C(F)(F)F)c2)c1` (configuration not stated): the melting point was in the range of 236 to 237 °C.

In the case of `Cc1cc(C2=CCN(S(=O)(=O)C(C)(C)C(=O)O)CC2)ccc1-c1cnc2ccccc2c1`, the melting point lay in the range of 222 to 224 °C. For `N#CC[C@H]1CCn2c(cc3ccccc32)C1`, the melting point was 100 to 101 °C. With `Cc1ccn2c(C)c(CCc3ccc4nc(C)oc4c3)nc2c1` the figure was 83 to 85 °C; with `CC(C)CSc1nc(N)nc2c1ncn2C1C=CC(CO)C1` (configuration not stated), 127 to 129 °C; with `CN1CCC(C2(O)c3ccc(F)cc3Sc3ccc(F)cc32)CC1` (configuration not stated), 207 to 209 °C. With `CC(C)(C)c1cc(CCc2ccccc2NC(=O)NCC(C)(C)c2ccc(F)cc2)cc(C(C)(C)C)c1O` the figure was 179 to 180 °C. For `Cc1onc(NS(=O)(=O)c2cccc3ccccc23)c1Br` the value was 167 to 170 °C; for `CN1CCN(Cc2ccc(-c3ccc(-c4cn([C@H]5CN6CCC5CC6)nn4)s3)cc2)CC1`, 214 °C; for `Cc1c(-c2ccncc2)sc(-c2ccncc2)c1C(F)F`, 132 to 133 °C.

`Cc1cc(OC(=S)N(C)C)nc(C(Cl)(Cl)Cl)n1`: the melting point lay in the range of 81 to 83 °C.

Compound `Cc1ccc(C(C#N)C=Cc2ccc(O)c(O)c2)cc1` (configuration not stated) showed a melting point of 172 °C. As to `N#Cc1nn(-c2c(Cl)cc(Cl)cc2Cl)cc1C1CC1(Br)Br` (configuration not stated), the melting point was determined as 164 °C. Turning to `COCc1cc(-c2csc(N)n2)on1`, the melting point lay within 137 to 138 °C. In the case of `CC(=O)c1cc(Cl)c(N)c(C#N)c1F`, the melting point is 180 to 182 °C.

The compound `CCCCc1ccc(C#Cc2ccc(Br)cc2)cc1` displayed a melting point of 75.6 to 76.1 °C. Take `CCOC=C(C(=O)OCC)C(=O)c1ccc(I)cc1Cl`: the melting point lay in the range of 237 to 240 °C.

`N#Cc1cc(C(=O)O)ccc1F` yielded a melting point of 177 to 178 °C.

With `CCOC(=O)c1nc2c(Cl)cccc2n(-c2ccc(OC)cc2)c1=O`, the melting point lay in the range of 128 to 129 °C. As to `Cn1c(=O)c(=O)[nH]c2ccc3c(c21)CCCN3`, the melting point was more than 285 °C. With `COC(=O)C(=O)NCCc1ccc(OCc2ccccc2)c(OCc2ccccc2)c1` the figure was 84 °C. In turn, `COC(=O)c1ccc(Cn2c(=O)c3cc(C(=O)NCc4ccc(OC)cc4)sc3n(C)c2=O)cc1C` returned a melting point of 179 to 181 °C. Regarding `ON=C(Cc1ccc(F)cc1)c1ccncc1`, the melting point was 155 °C.
